{"source": "paper PMC6170201", "about": "(Xenobiotica; the fate of foreign compounds in biological …, 2010)", "key": {"LS180 cells [1]": {"test_system": "LS180 cells", "experiment": "Acetaminophen glucuronidation in intact LS180 cells", "settings": "for effect on acetaminophen glucuronidation: LS180 cells; for inhibition of acetaminophen glucuronidation: initial screen, at the highest concentration tested, intact LS180 cells; for IC50: Homo sapiens, LS180, 24 h, read-out: IC50, acetaminophen glucuronidation; for fold difference in IC50, HLM versus intact LS180 cells: acetaminophen glucuronidation, more potent in LS180 cells"}, "LS180 cells [2]": {"test_system": "LS180 cells", "settings": "250 nM, substrate not clear, ref Basu et al. 2008; cited from earlier work"}, "PKC α": {"test_system": "PKC α", "settings": "reported value, no reference given; cited from earlier work"}, "PKC β1": {"test_system": "PKC β1", "settings": "reported value, no reference given; cited from earlier work"}, "PKC": {"test_system": "PKC", "settings": "600 μM, human astrocytoma cells; ref Kurita et al. 2007; cited from earlier work"}, "LS180 cells [3]": {"test_system": "LS180 cells", "settings": "ref Basu et al. 2003; Gutmann et al. 2006; cited from earlier work"}, "UGT1A1": {"test_system": "UGT1A1", "settings": "UGT1A1 expressed in COS-1 cells; ref Basu et al. 2003; Basu et al. 2005; cited from earlier work"}, "UGT1A7": {"test_system": "UGT1A7", "settings": "UGT1A7 expressed in COS-1 cells; ref Basu et al. 2003; Basu et al. 2005; cited from earlier work"}, "UGT1A10 [4]": {"test_system": "UGT1A10", "settings": "UGT1A10 expressed in COS-1 cells; ref Basu et al. 2003; Basu et al. 2005; cited from earlier work"}, "UGT1A10 [5]": {"test_system": "UGT1A10", "settings": "UGT1A10-transfected COS-1 cells; ref Basu et al. 2008; cited from earlier work"}, "UGT1A6 [6]": {"target": "T1, UGT1A6 (Homo sapiens, UniProt P19224)", "T1 sequence (P19224 27-532)": "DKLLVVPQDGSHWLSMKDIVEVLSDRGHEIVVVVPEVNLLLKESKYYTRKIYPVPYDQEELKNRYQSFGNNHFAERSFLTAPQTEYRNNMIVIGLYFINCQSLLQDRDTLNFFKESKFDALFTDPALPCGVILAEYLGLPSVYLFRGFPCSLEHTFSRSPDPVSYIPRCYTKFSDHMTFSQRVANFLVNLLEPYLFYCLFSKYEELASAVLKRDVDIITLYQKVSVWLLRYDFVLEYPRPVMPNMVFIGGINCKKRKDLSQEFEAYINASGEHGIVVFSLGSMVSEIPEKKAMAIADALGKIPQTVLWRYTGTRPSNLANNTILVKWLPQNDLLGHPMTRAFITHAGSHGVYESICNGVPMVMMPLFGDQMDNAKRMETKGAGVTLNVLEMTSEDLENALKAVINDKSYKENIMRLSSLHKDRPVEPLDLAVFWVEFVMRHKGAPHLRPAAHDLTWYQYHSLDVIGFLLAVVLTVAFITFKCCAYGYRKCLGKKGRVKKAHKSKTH", "experiment": "Serotonin glucuronidation by pooled human liver microsomes"}, "UGT1A6 [7]": {"target": "T1, UGT1A6", "experiment": "Serotonin glucuronidation, treated intact UGT1A6-infected Sf9 cells"}, "UGT1A6 [8]": {"target": "T1, UGT1A6", "experiment": "Serotonin glucuronidation, UGT1A6-infected Sf9 treated cell lysates"}, "UGT1A6 [9]": {"target": "T1, UGT1A6", "experiment": "Acetaminophen glucuronidation, treated intact UGT1A6-infected Sf9 cells"}, "LS180 cell lysates": {"test_system": "LS180 cell lysates", "settings": "read-out: IC50, acetaminophen glucuronidation; (untreated) LS180 cell lysates"}, "human liver microsomes": {"test_system": "human liver microsomes", "experiment": "Acetaminophen glucuronidation by pooled human liver microsomes", "type": "biochemical", "settings": "read-out: IC50, acetaminophen glucuronidation; HLM, 10 mM acetaminophen"}, "[10]": {"test_system": "SW480 colon adenocarcinoma cells", "settings": "50 μM, 12 hr treatment, ref Masur et al. 2001; cited from earlier work"}, "HT29": {"test_system": "HT29", "settings": "HT29, 24 hr, concentrations up to 10μM; ref Tillman et al. 2003; cited from earlier work"}, "HCT8": {"test_system": "HCT8", "settings": "HCT8, 24 hr, concentrations up to 10μM; ref Tillman et al. 2003; cited from earlier work"}, "HCT116": {"test_system": "HCT116", "settings": "HCT116, 24 hr, concentrations up to 10μM; ref Tillman et al. 2003; cited from earlier work"}, "[11]": {"settings": "concentrations more than 20 times reported selective PKC IC50 values"}}}
{"smiles": "O=C1NC(=O)c2cc(Nc3ccc(F)cc3)c(Nc3ccc(F)cc3)cc21", "note": "[CGP-53353]", "values": [{"measurement": "effect on acetaminophen glucuronidation", "setting": "LS180 cells [1]; [11]", "result": "did not show significant inhibitory activity"}, {"measurement": "inhibition of acetaminophen glucuronidation", "setting": "LS180 cells [1]", "result": "≤ 50", "unit": "%"}]}
{"smiles": "CN(C)C[C@@H]1CCn2cc(c3ccccc32)C2=C(C(=O)NC2=O)c2cn(c3ccccc23)CCO1", "note": "[LY-333531, (S)-13-[(dimethylamino)methyl]-10,11,14,15-tetrahydro-4,9:16, 21-dimetheno-1H, 13H-dibenzo[e,k]pyrrolo[3,4-h][1,4,13]oxadiazacyclohexadecene-1,3(2H)-d ione]", "values": [{"measurement": "effect on acetaminophen glucuronidation", "setting": "LS180 cells [1]; [11]", "result": "did not show significant inhibitory activity"}, {"measurement": "inhibition of acetaminophen glucuronidation", "setting": "LS180 cells [1]", "result": "≤ 50", "unit": "%"}]}
{"smiles": "O=C1NC(=O)C(c2cn(CCCn3ccnc3)c3ccccc23)=C1Nc1ccccc1", "note": "[PKC-β inhibitor]", "values": [{"measurement": "effect on acetaminophen glucuronidation", "setting": "LS180 cells [1]; [11]", "result": "did not show significant inhibitory activity"}, {"measurement": "inhibition of acetaminophen glucuronidation", "setting": "LS180 cells [1]", "result": "≤ 50", "unit": "%"}]}
{"smiles": "CN(C)C[C@H]1CCn2c(c(C3=C(c4cn(C)c5ccccc45)C(=O)NC3=O)c3ccccc32)C1", "note": "[Ro 32–0432]", "values": [{"measurement": "inhibition of glucuronidation activity", "setting": "LS180 cells [2]", "result": 30, "unit": "%"}, {"measurement": "IC50", "setting": "PKC α", "result": "[…]"}, {"measurement": "IC50", "setting": "PKC β1", "result": "[…]"}, {"measurement": "effect on acetaminophen glucuronidation", "setting": "LS180 cells [1]; [11]", "result": "did not show significant inhibitory activity"}, {"measurement": "inhibition of acetaminophen glucuronidation", "setting": "LS180 cells [1]", "result": "≤ 50", "unit": "%"}]}
{"smiles": "CCCC(CCC)C(=O)O", "note": "[Valproic acid, valproic acid]", "values": [{"measurement": "inhibition of PKC", "setting": "PKC", "result": 40, "unit": "%"}, {"measurement": "effect on acetaminophen glucuronidation", "setting": "LS180 cells [1]; 80 μM and 350 μM", "result": "not inhibitory"}, {"measurement": "inhibition of acetaminophen glucuronidation", "setting": "LS180 cells [1]", "result": "≤ 50", "unit": "%"}]}
{"smiles": "COc1c(C[C@@H](C)OC(=O)Oc2ccc(O)cc2)c2c3c(C[C@@H](C)OC(=O)c4ccccc4)c(OC)c(=O)c4c(O)cc(OC)c(c5c(OC)cc(O)c(c1=O)c52)c43", "note": "[calphostin-C]", "values": [{"measurement": "concentration up to which not toxic in LS180 cells", "setting": "LS180 cells [3]", "result": "up to 1 μM"}, {"measurement": "effect on glucuronidation of anthraflavic acid", "setting": "UGT1A1", "result": "inhibits"}, {"measurement": "effect on glucuronidation of bilirubin", "setting": "UGT1A1", "result": "inhibits"}, {"measurement": "effect on glucuronidation of capsaicin", "setting": "UGT1A7", "result": "inhibits"}, {"measurement": "effect on glucuronidation of eugenol", "setting": "UGT1A10 [4]", "result": "inhibits"}, {"measurement": "effect on phosphorylation of UGT1A10", "setting": "UGT1A10 [5]", "result": "dose-dependent decrease"}, {"measurement": "IC50", "setting": "LS180 cells [1]", "result": "0.14 ± 0.03", "unit": "µM"}, {"measurement": "fold difference in IC50, HLM versus intact LS180 cells", "setting": "LS180 cells [1]", "result": "over 3.5 fold"}, {"measurement": "IC50", "setting": "UGT1A6 [6]", "result": "> 2", "unit": "µM"}, {"measurement": "IC50", "setting": "UGT1A6 [7]", "result": "0.5 ± 0.1", "unit": "µM"}, {"measurement": "IC50", "setting": "UGT1A6 [8]", "result": "> 2", "unit": "µM"}, {"measurement": "IC50", "setting": "UGT1A6 [9]", "result": "0.83 ± 0.1", "unit": "µM"}, {"measurement": "fold higher IC50 in insect cells versus LS180 cells", "setting": "UGT1A6 [9]; acetaminophen glucuronidation", "result": "about 4 fold"}]}
{"smiles": "COc1cc(/C=C/C(=O)CC(=O)/C=C/c2ccc(O)c(OC)c2)ccc1O", "note": "[curcumin, Curcumin]", "values": [{"measurement": "IC50", "setting": "LS180 cell lysates", "result": "60.9 ± 12.2", "unit": "µM"}, {"measurement": "IC50", "setting": "LS180 cells [1]", "result": "12.1 ± 0.4", "unit": "µM"}, {"measurement": "IC50", "setting": "UGT1A6 [6]", "result": "73.9 ± 1", "unit": "µM"}, {"measurement": "IC50", "setting": "UGT1A6 [7]", "result": "64.9 ± 7.5", "unit": "µM"}, {"measurement": "IC50", "setting": "UGT1A6 [8]", "result": "31.6 ± 2.4", "unit": "µM"}, {"measurement": "IC50", "setting": "UGT1A6 [9]", "result": "58.9 ± 4.5", "unit": "µM"}]}
{"smiles": "Cc1cc(O)c2c(=O)c3c(O)cc(O)c4c5c(O)cc(O)c6c(=O)c7c(O)cc(C)c8c1c2c(c34)c(c78)c65", "note": "[hypericin]", "values": [{"measurement": "IC50", "setting": "human liver microsomes", "result": "> 30", "unit": "µM"}, {"measurement": "concentration up to which not toxic in LS180 cells", "setting": "LS180 cells [3]", "result": "up to 10 μM"}, {"measurement": "IC50", "setting": "LS180 cells [1]", "result": "7.1 ± 0.6", "unit": "µM"}, {"measurement": "fold difference in IC50, HLM versus intact LS180 cells", "setting": "LS180 cells [1]", "result": "over 3.5 fold"}, {"measurement": "IC50", "setting": "UGT1A6 [7]", "result": "0.59 ± 0.05", "unit": "µM"}, {"measurement": "IC50", "setting": "UGT1A6 [8]", "result": "> 30", "unit": "µM"}, {"measurement": "IC50", "setting": "UGT1A6 [9]", "result": "0.55 ± 0.04", "unit": "µM"}, {"measurement": "fold lower IC50 in Sf9 cells compared with LS180 cells", "setting": "UGT1A6 [9]; acetaminophen glucuronidation", "result": 10, "unit": "fold"}]}
{"smiles": "CC(=O)c1c(O)c(C)c(O)c(Cc2c(O)c3c(c(C(=O)/C=C/c4ccccc4)c2O)OC(C)(C)C=C3)c1O", "note": "[rottlerin]", "values": [{"measurement": "IC50", "setting": "human liver microsomes", "result": "> 40", "unit": "µM"}, {"measurement": "effect on viability of cells", "setting": "[10]", "result": "no effect"}, {"measurement": "induction of apoptosis", "setting": "HT29", "result": "did not induce apoptosis"}, {"measurement": "induction of apoptosis", "setting": "HCT8", "result": "did not induce apoptosis"}, {"measurement": "induction of apoptosis", "setting": "HCT116", "result": "did not induce apoptosis"}, {"measurement": "IC50", "setting": "LS180 cells [1]", "result": "9 ± 1.2", "unit": "µM"}, {"measurement": "fold difference in IC50, HLM versus intact LS180 cells", "setting": "LS180 cells [1]", "result": "over 3.5 fold"}, {"measurement": "IC50", "setting": "UGT1A6 [6]", "result": "> 40", "unit": "µM"}, {"measurement": "IC50", "setting": "UGT1A6 [7]", "result": "> 40", "unit": "µM"}, {"measurement": "IC50", "setting": "UGT1A6 [8]", "result": "> 40", "unit": "µM"}, {"measurement": "IC50", "setting": "UGT1A6 [9]", "result": "> 40", "unit": "µM"}]}
